Our source for the IC50 and Nav1.4/Nav1.7 values is patent publication US9636418B2 (priority 2013, dated 2017).

Values joined by “and” are separate entries in the source; they are usually repeats but may differ in a detail not shown here. Equal entries are not always repeated. Where two headings read alike, the source gives them in different places.

The target in assay [1] is T1, hNav1.4 (Homo sapiens, UniProt P35499). Nature of the assay: cell-based.
Assay [2] has as its target T1, hNav1.4. Nature of the assay: cell-based. The conditions noted are these: ratio of IonWorks Quattro IC50 values. For orientation: In patch-clamp work, channel activity is measured electrically.

As usually defined, the IC50 is the concentration needed to halve the response being measured.

T1 sequence (P35499 whole entry): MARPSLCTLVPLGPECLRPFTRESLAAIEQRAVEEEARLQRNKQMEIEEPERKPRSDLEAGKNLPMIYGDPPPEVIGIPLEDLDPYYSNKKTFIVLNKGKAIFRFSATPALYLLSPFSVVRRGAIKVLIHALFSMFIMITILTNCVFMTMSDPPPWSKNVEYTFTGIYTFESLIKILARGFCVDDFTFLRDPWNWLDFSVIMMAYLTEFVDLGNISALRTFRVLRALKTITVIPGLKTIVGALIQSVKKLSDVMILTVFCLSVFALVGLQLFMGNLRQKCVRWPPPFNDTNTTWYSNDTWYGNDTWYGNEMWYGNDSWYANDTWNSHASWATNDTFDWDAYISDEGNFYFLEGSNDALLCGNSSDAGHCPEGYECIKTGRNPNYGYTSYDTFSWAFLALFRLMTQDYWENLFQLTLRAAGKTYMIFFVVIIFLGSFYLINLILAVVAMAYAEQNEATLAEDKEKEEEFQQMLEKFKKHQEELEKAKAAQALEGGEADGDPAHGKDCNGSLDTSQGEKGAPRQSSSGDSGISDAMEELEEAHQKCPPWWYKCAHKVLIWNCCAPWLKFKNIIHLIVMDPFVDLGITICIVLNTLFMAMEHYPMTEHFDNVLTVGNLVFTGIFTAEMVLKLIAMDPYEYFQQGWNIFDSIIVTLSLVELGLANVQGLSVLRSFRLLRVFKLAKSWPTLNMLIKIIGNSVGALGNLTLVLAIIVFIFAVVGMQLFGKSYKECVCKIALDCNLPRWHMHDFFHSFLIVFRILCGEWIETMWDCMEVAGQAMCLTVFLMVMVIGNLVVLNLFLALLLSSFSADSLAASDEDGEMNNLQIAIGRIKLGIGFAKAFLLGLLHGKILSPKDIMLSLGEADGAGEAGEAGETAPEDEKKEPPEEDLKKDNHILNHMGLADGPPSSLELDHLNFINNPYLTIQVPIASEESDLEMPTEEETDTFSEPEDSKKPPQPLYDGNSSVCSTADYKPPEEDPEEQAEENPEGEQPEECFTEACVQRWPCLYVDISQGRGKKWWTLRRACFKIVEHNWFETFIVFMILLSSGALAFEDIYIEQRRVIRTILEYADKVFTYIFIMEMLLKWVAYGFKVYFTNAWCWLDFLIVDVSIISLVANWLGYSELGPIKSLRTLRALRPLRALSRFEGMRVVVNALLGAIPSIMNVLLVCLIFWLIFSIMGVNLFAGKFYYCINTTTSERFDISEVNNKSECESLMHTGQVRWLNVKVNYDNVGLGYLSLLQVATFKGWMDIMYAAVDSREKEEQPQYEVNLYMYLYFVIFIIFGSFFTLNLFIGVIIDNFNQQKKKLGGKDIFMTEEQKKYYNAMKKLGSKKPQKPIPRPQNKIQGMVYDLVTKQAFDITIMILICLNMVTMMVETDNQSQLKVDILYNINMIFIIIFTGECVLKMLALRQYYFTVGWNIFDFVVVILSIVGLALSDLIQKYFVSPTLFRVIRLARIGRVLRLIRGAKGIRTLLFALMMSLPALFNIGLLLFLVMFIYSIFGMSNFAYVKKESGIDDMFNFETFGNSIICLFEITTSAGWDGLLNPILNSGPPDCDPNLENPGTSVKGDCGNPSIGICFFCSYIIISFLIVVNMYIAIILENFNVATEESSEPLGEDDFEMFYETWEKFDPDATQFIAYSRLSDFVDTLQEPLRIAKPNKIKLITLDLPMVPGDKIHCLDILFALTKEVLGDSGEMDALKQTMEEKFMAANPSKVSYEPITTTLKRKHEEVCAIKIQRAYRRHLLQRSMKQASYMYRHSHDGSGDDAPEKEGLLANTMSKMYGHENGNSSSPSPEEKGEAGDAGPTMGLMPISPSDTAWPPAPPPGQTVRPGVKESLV

Turning to `CC[C@H](C)[C@H](NC(=O)[C@@H](NC(=O)[C@H](CCCCN)NC(=O)[C@H](CCCNC(=N)N)NC(=O)[C@@H]1CSSC[C@@H]2NC(=O)[C@H](C)NC(=O)[C@H](CCCNC(=N)N)NC(=O)[C@H](CCCCN)NC(=O)[C@H](CO)NC(=O)[C@H](CC(=O)O)NC(=O)[C@@H]3CSSC[C@H](NC(=O)[C@H](CCC(=O)O)NC(=O)[C@H](CC(C)C)NC(=O)CNC(=O)[C@H](CCC(=O)O)NC(=O)[C@H](CSSC[C@H](NC(=O)[C@@H](N)Cc4ccc(O)cc4)C(=O)N[C@@H](CCC(N)=O)C(=O)N[C@@H](CCCCN)C(=O)N[C@@H](Cc4c[nH]c5ccccc45)C(=O)N[C@@H](CCSC)C(=O)N[C@@H](Cc4c[nH]c5ccccc45)C(=O)N[C@@H]([C@@H](C)O)C(=O)N3)NC2=O)C(=O)N[C@@H](CCCCN)C(=O)N[C@@H](CC(C)C)C(=O)N[C@@H](Cc2c[nH]c3ccccc23)C(=O)N1)[C@@H](C)CC)C(N)=O` [SEQ ID NO: 63, [Glu20]JzTx-V(1-29)], the half-maximal inhibitory concentration (IC50) at hNav1.4 [1] (read-out: IC50 against hNav1.4 in the PX assay format) was found to be 1250 nM.
Regarding `CCC[C@H](N)C(=O)N[C@@H](Cc1ccc(O)cc1)C(=O)N[C@H]1CSSC[C@@H]2NC(=O)[C@@H]3CSSC[C@@H](C(=O)N[C@@H](CCCNC(=N)N)C(=O)N[C@@H](CCCCN)C(=O)N[C@H](C(=O)N[C@H](C(N)=O)[C@@H](C)CC)[C@@H](C)CC)NC(=O)[C@H](Cc4c[nH]c5ccccc45)NC(=O)[C@H](CC(C)C)NC(=O)[C@H](CCCCN)NC(=O)[C@H](CSSC[C@H](NC(=O)[C@H]([C@@H](C)O)NC(=O)[C@H](Cc4c[nH]c5ccccc45)NC(=O)[C@H](CC(C)C)NC(=O)[C@H](Cc4c[nH]c5ccccc45)NC(=O)[C@H](CCCCN)NC(=O)[C@H](CCC(N)=O)NC1=O)C(=O)N[C@@H](CC(=O)O)C(=O)N[C@@H](CO)C(=O)N[C@@H](CCCCN)C(=O)N[C@@H](CCCNC(=N)N)C(=O)N[C@@H](CCCCNC(=O)[C@@H](N)Cc1cn(CCOCCOCCOCCOCCOCCOCCOCCOCCOCCOCCN)nn1)C(=O)N3)NC(=O)[C@H](CCCNC(=N)N)NC(=O)[C@H](CC(C)C)NC(=O)CNC(=O)[C@H](CCC(=O)O)NC2=O` [compound 446], at hNav1.4 [1] (ratio of PX IC50 values), the Nav1.4/Nav1.7 was 11.
With `CC[C@@H]1NC(=O)[C@H](CC(C)C)NC(=O)CNC(=O)[C@H](CCC(=O)O)NC(=O)[C@@H]2CSSC[C@H](NC(=O)[C@@H](N)Cc3ccc(O)cc3)C(=O)N[C@@H](CCC(N)=O)C(=O)N[C@@H](CCCCN)C(=O)N[C@@H](Cc3c[nH]c4ccccc34)C(=O)N[C@@H](CCSC)C(=O)N[C@@H](Cc3c[nH]c4ccccc34)C(=O)N[C@@H]([C@@H](C)O)C(=O)N[C@H]3CSSC[C@H](NC1=O)C(=O)N[C@@H](CCCCN)C(=O)N[C@@H](CC(C)C)C(=O)N[C@@H](Cc1c[nH]c4ccccc14)C(=O)N[C@H](C(=O)N[C@@H](CCCNC(=N)N)C(=O)N[C@@H](CCCCN)C(=O)N[C@H](C(=O)N[C@H](C(N)=O)[C@@H](C)CC)[C@@H](C)CC)CSSC[C@H](NC(=O)[C@H](C)NC(=O)[C@H](CCCNC(=N)N)NC(=O)[C@H](CCCCN)NC(=O)[C@H](CO)NC(=O)[C@H](CC(=O)O)NC3=O)C(=O)N2` [compound 117], the Nav1.4/Nav1.7 at hNav1.4 [2] is given as 19.
On to `CC[C@H](NC(=O)[C@H](CCCCN)NC(=O)[C@H](CCCNC(=N)N)NC(=O)[C@@H]1CSSC[C@@H]2NC(=O)[C@H](C)NC(=O)[C@H](CCCNC(=N)N)NC(=O)[C@H](CCCCN)NC(=O)[C@H](CO)NC(=O)[C@H](CC(=O)O)NC(=O)[C@@H]3CSSC[C@H](NC(=O)[C@H](CCC(=O)O)NC(=O)[C@H](CC(C)C)NC(=O)CNC(=O)[C@H](CCC(=O)O)NC(=O)[C@H](CSSC[C@H](NC(=O)[C@@H](N)Cc4ccc(O)cc4)C(=O)N[C@@H](CCC(N)=O)C(=O)N[C@@H](CCCCN)C(=O)N[C@@H](Cc4c[nH]c5ccccc45)C(=O)N[C@@H](CCSC)C(=O)N[C@@H](Cc4c[nH]c5ccccc45)C(=O)N[C@@H]([C@@H](C)O)C(=O)N3)NC2=O)C(=O)N[C@@H](CCCCN)C(=O)N[C@@H](CC(C)C)C(=O)N[C@@H](Cc2c[nH]c3ccccc23)C(=O)N1)C(=O)N[C@H](C(N)=O)[C@@H](C)CC` [compound 130], for which the Nav1.4/Nav1.7 at hNav1.4 [2] was 29 and 24.
As to `CCCC[C@@H]1NC(=O)[C@H](Cc2c[nH]c3ccccc23)NC(=O)[C@H](CCCCN)NC(=O)[C@H](CCC(N)=O)NC(=O)[C@@H](NC(=O)[C@H](Cc2ccc(O)cc2)NC(=O)[C@@H](N)Cc2cn(CCCOCCOCCOCCOCCOCCOCCOCCOCCOCCOCCN)nn2)CSSC[C@@H]2NC(=O)[C@@H]3CSSC[C@@H](C(=O)N[C@@H](CCCNC(=N)N)C(=O)N[C@@H](CCCCN)C(=O)N[C@H](C(=O)N[C@H](C(N)=O)[C@@H](C)CC)[C@@H](C)CC)NC(=O)[C@H](Cc4c[nH]c5ccccc45)NC(=O)[C@H](CC(C)C)NC(=O)[C@H](CCCCN)NC(=O)[C@H](CSSC[C@H](NC(=O)[C@H]([C@@H](C)O)NC(=O)[C@H](Cc4c[nH]c5ccccc45)NC1=O)C(=O)N[C@@H](CC(=O)O)C(=O)N[C@@H](CO)C(=O)N[C@@H](CCCCN)C(=O)N[C@@H](CCCNC(=N)N)C(=O)N[C@@H](C)C(=O)N3)NC(=O)[C@H](CCCNC(=N)N)NC(=O)[C@H](CC(C)C)NC(=O)CNC(=O)[C@H](CCC(=O)O)NC2=O` [compound 247], the results for the Nav1.4/Nav1.7 at hNav1.4 [1] (ratio of PX IC50 values) and on hNav1.4 [2] were 1 and 2, respectively.
In the case of `CCCC[C@@H]1NC(=O)[C@H](Cc2c[nH]c3ccccc23)NC(=O)[C@H](CCCCN)NC(=O)[C@H](CCC(N)=O)NC(=O)[C@@H](NC(=O)[C@@H](N)Cc2cn(CCCOCCOCCOCCOCCOCCOCCOCCOCCOCCOCCN)nn2)CSSC[C@@H]2NC(=O)[C@@H]3CSSC[C@@H](C(=O)N[C@@H](CCCNC(=N)N)C(=O)N[C@@H](CCCCN)C(=O)N[C@H](C(=O)N[C@H](C(N)=O)[C@@H](C)CC)[C@@H](C)CC)NC(=O)[C@H](Cc4c[nH]c5ccccc45)NC(=O)[C@H](CC(C)C)NC(=O)[C@H](CCCCN)NC(=O)[C@H](CSSC[C@H](NC(=O)[C@H]([C@@H](C)O)NC(=O)[C@H](Cc4c[nH]c5ccccc45)NC1=O)C(=O)N[C@@H](CC(=O)O)C(=O)N[C@@H](CO)C(=O)N[C@@H](CCCCN)C(=O)N[C@@H](CCCNC(=N)N)C(=O)N[C@@H](C)C(=O)N3)NC(=O)[C@H](CCCNC(=N)N)NC(=O)[C@H](CC(C)C)NC(=O)CNC(=O)[C@H](CCC(=O)O)NC2=O` [compound 248], the Nav1.4/Nav1.7 is 15 at hNav1.4 [1] (ratio of PX IC50 values); 4 and 3 at hNav1.4 [2].
For the compound `C#CC[C@H](N)C(=O)NCCCC[C@@H]1NC(=O)[C@H](CCCNC(=N)N)NC(=O)[C@H](CCCCN)NC(=O)[C@H](CO)NC(=O)[C@H](CC(=O)O)NC(=O)[C@@H]2CSSC[C@@H]3NC(=O)[C@H](CCCNC(=N)N)NC(=O)[C@H](CC(C)C)NC(=O)CNC(=O)[C@H](CCC(=O)O)NC(=O)[C@H](CSSC[C@H](NC(=O)[C@H](Cc4ccc(O)cc4)NC(=O)[C@@H](N)CCC)C(=O)N[C@@H](CCC(N)=O)C(=O)N[C@@H](CCCCN)C(=O)N[C@@H](Cc4c[nH]c5ccccc45)C(=O)N[C@@H](CCCC)C(=O)N[C@@H](Cc4c[nH]c5ccccc45)C(=O)N[C@@H]([C@@H](C)O)C(=O)N2)NC(=O)[C@H](CSSC[C@@H](C(=O)N[C@@H](CCCNC(=N)N)C(=O)N[C@@H](CCCCN)C(=O)N[C@H](C(=O)N[C@H](C(N)=O)[C@@H](C)CC)[C@@H](C)CC)NC(=O)[C@H](Cc2c[nH]c4ccccc24)NC(=O)[C@H](CC(C)C)NC(=O)[C@H](CCCCN)NC3=O)NC1=O` [compound 431], the IC50 on hNav1.4 [1] (PatchXpress, tonic block, read-out: PX hNav1.4 Tonic IC50) stood at 20.5 nM. Further, the Nav1.4/Nav1.7 at hNav1.4 [1] (ratio of PX tonic IC50 values) is listed as 13.
In the case of `C#CC[C@@H]1NC(=O)[C@@H]2CSSC[C@H](NC(=O)[C@H](Cc3ccc(O)cc3)NC(=O)[C@@H](N)CC#N)C(=O)N[C@@H](CCC(N)=O)C(=O)N[C@@H](CCCCN)C(=O)N[C@@H](Cc3c[nH]c4ccccc34)C(=O)N[C@@H](CCCC)C(=O)N[C@@H](Cc3c[nH]c4ccccc34)C(=O)N[C@@H]([C@@H](C)O)C(=O)N[C@H]3CSSC[C@H](NC(=O)[C@H](CCC(=O)O)NC(=O)[C@H](CC(C)C)NC(=O)CNC1=O)C(=O)N[C@@H](CCCCN)C(=O)N[C@@H](CC(C)C)C(=O)N[C@@H](Cc1c[nH]c4ccccc14)C(=O)N[C@H](C(=O)N[C@@H](CCCNC(=N)N)C(=O)N[C@@H](CCCCN)C(=O)N[C@H](C(=O)N[C@H](C(N)=O)[C@@H](C)CC)[C@@H](C)CC)CSSC[C@H](NC(=O)[C@H](C)NC(=O)[C@H](CCCNC(=N)N)NC(=O)[C@H](CCCCN)NC(=O)[C@H](CO)NC(=O)[C@H](CC(=O)O)NC3=O)C(=O)N2` [compound 396], on hNav1.4 [1] (ratio of PX tonic IC50 values), the Nav1.4/Nav1.7 stood at 98.
`CCCC[C@@H]1NC(=O)[C@H](Cc2c[nH]c3ccccc23)NC(=O)[C@H](CCCCN)NC(=O)[C@H](CCC(N)=O)NC(=O)[C@@H](NC(=O)[C@@H](N)Cc2ccc(O)cc2)CSSC[C@@H]2NC(=O)[C@@H]3CSSC[C@@H](C(=O)N[C@@H](CCCNC(=N)N)C(=O)N[C@@H](CCCCN)C(=O)N[C@H](C(=O)N[C@@H](Cc4cn(CCCOCCOCCOCCOCCOCCOCCOCCOCCOCCOCCN)nn4)C(N)=O)[C@@H](C)CC)NC(=O)[C@H](Cc4c[nH]c5ccccc45)NC(=O)[C@H](CC(C)C)NC(=O)[C@H](CCCCN)NC(=O)[C@H](CSSC[C@H](NC(=O)[C@H]([C@@H](C)O)NC(=O)[C@H](Cc4c[nH]c5ccccc45)NC1=O)C(=O)N[C@@H](CC(=O)O)C(=O)N[C@@H](CO)C(=O)N[C@@H](CCCCN)C(=O)N[C@@H](CCCNC(=N)N)C(=O)N[C@@H](C)C(=O)N3)NC(=O)[C@H](CCCNC(=N)N)NC(=O)[C@H](CC(C)C)NC(=O)CNC(=O)[C@H](CCC(=O)O)NC2=O` [compound 270]: at hNav1.4 [2], the Nav1.4/Nav1.7 is 2.
